Results on 2 molecules are retold here after US20160008382A1, “METHODS OF TREATMENT OF CANCER” (Millennium Pharmaceuticals, Inc., priority 2012, published 2016).

Data set [1] relates to relapsed or refractory mantle cell lymphoma. Conditions: patients with relapsed or refractory mantle cell lymphoma, Phase II; cited from earlier work.
In another data set the test system is nasopharyngeal cancer. Nature of the data set: Treatment of nasopharyngeal cancer patients with the compound of formula (III-A), IV twice-weekly; clinical response. The format is in vivo, human. Here is the method:
(1) Tissue Microarray (obtained from US Biomax, Inc.) of primary nasopharyngeal cancer (n=35) (2) Tissue Microarray of metastatic nasopharyngeal cancer (obtained from US Biomax, Inc.) (n=15) (3) Tissue Microarray of other histologies of head and neck cancers (obtained from US Biomax, Inc.) (n=68) (4) Archival primary tumor biopsy samples of patients with head and neck squamous cell cancers (n=14). All samples were obtained under the appropriate informed consent. The patients were administered the compound of formula (III-A) on a twice-weekly schedule (days 1, 4, 8 and 11 of a 21-day cycle) as an IV injection. Of the primary tumor samples in (4), there were three patients with nasopharyngeal cancer.

For data set [2] the following is noted: on exposure to aqueous solution or plasma; cited from earlier work.
For data set [3], the system named is hematological and solid tumor xenograft models. The following applies: range of hematological and solid tumor xenograft models; cited from earlier work.

On to `CC(C)C[C@H](NC(=O)[C@H](Cc1ccccc1)NC(=O)c1cnccn1)B(O)O` [bortezomib, N-2-pyrazinecarbonyl-L-phenylalanine-L-leucineboronic acid], for which, in data set [1], the activity in patients entry is listed as “activity”.
As to `CC(C)C[C@H](NC(=O)CNC(=O)c1cc(Cl)ccc1Cl)B1OC(=O)C(CC(=O)O)(CC(=O)O)O1` [compound of formula (III-A), 2,2′-{2-[(1R)-1-({[(2,5-dichlorobenzoyl)amino]acetyl}amino)-3-methylbutyl]-5-oxo-1,3,2-dioxaborolane-4,4-diyl}diacetic acid], in the data set with nasopharyngeal cancer (Patient 1, metastatic nasopharyngeal cancer of a squamous cell type, IV injection days 1, 4, 8 and 11 of a 21-day cycle, NFκB p65 H-score 300), the “clinical response, Patient 1” value was “durable partial response”. Also, the “Responder/Non-responder, Patient 1” value in the data set on nasopharyngeal cancer (Patient 1, nasopharyngeal cancer, NFκB p65 IHC assay H-score 300) is listed as “Responder”. Further, the “disease progression, Patient 2 (time to progression)” value in the data set on nasopharyngeal cancer (Patient 2, nasopharyngeal cancer, IV injection days 1, 4, 8 and 11 of a 21-day cycle, NFκB p65 H-score 200) is listed as at most 4 cycles. Moreover, in the data set on nasopharyngeal cancer (Patient 2, nasopharyngeal cancer, NFκB p65 IHC assay H-score 200), the “Responder/Non-responder, Patient 2” value was “Non-responder”. Further, the “clinical response, Patient 3” value in the data set with nasopharyngeal cancer (Patient 3, nasopharyngeal cancer, IV injection days 1, 4, 8 and 11 of a 21-day cycle, NFκB p65 H-score 160) is given as “progressive disease”. Besides, the “Responder/Non-responder, Patient 3” value in the data set on nasopharyngeal cancer (Patient 3, nasopharyngeal cancer, NFκB p65 IHC assay H-score 160) is listed as “Non-responder”. In addition, the “hydrolysis to the active form MLN2238” value in data set [2] was “rapidly hydrolyzes”. Further, the “anti-tumor activity in xenograft models” value in data set [3] is given as “anti-tumor activity”.
